The test system of this test is L1210 leukemia ip in BDF1 mice, survival T/C. Description: NCI In Vivo Anticancer Drug Screen. Data for tumor model L1210 Leukemia (intraperitoneal) in B6D2F1 (BDF1) mice. As to conditions: endpoint: mean survival time, higher = longer survival. The procedure, abridged: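 Each compound was tested against a transplantable tumor grown in mice. The endpoint was survival, with treated animals benchmarked against vehicle controls as a simple ratio.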

Where [1] appears, read: dose: 100.0 mg/kg/injection, schedule: Q04DX002 (ip), vehicle: Klucel (hydroxypropylcellulose) (HPC).
The mark [2] stands for this setting: dose: 200.0 mg/kg/injection, schedule: Q04DX002 (ip), vehicle: Klucel (hydroxypropylcellulose) (HPC).
[3] abbreviates: dose: 100.0 mg/kg/injection, schedule: Q04DX003 (ip), vehicle: saline with Tween-80.
The mark [4] stands for this setting: dose: 200.0 mg/kg/injection, schedule: Q04DX003 (ip), vehicle: saline with Tween-80.
[5] abbreviates: dose: 400.0 mg/kg/injection, schedule: Q04DX003 (ip), vehicle: saline with Tween-80.
Setting [6] is: dose: 100.0 mg/kg/injection, schedule: Q01DX009 (ip), vehicle: Klucel (hydroxypropylcellulose) (HPC).
Setting [7] is: dose: 200.0 mg/kg/injection, schedule: Q01DX009 (ip), vehicle: Klucel (hydroxypropylcellulose) (HPC).
The mark [8] stands for this setting: dose: 400.0 mg/kg/injection, schedule: Q01DX009 (ip), vehicle: Klucel (hydroxypropylcellulose) (HPC).
[9] abbreviates: dose: 100.0 mg/kg/injection, schedule: Q04DX003 (ip), vehicle: saline.

Molecules are shown by their SMILES. Values joined by “and” are separate entries in the source; they are usually repeats but may differ in a detail not shown here. Equal entries are not always repeated. Inconclusive results and toxic doses are left out.

Consider `O=P(O)(CP(=O)(c1ccccc1)c1ccccc1)c1ccccc1`, for which the T/C under setting [1] is 94 % of control and the T/C under setting [2] is 94 % of control.
Turning to `NCCCNCCCN`, the T/C runs as follows: (dose: 25.0 mg/kg/injection, schedule: Q04DX002 (ip), vehicle: Klucel (hydroxypropylcellulose) (HPC)) 103 % of control; (dose: 50.0 mg/kg/injection, schedule: Q04DX002 (ip), vehicle: Klucel (hydroxypropylcellulose) (HPC)) 97 % of control; under setting [1], 103 % of control and 117 % of control.
With `CC(CO)(CO)N=Cc1cc(I)cc(I)c1O`, the T/C (dose: 100.0 mg/kg/injection, schedule: Q01DX001 (ip), vehicle: carboxymethylcellulose (CMC)) is 93 % of control; the T/C (dose: 200.0 mg/kg/injection, schedule: Q01DX001 (ip), vehicle: carboxymethylcellulose (CMC)) is 98 % of control; the T/C (dose: 400.0 mg/kg/injection, schedule: Q01DX001 (ip), vehicle: carboxymethylcellulose (CMC)) was 95 % of control.
Turning to `Clc1ccc(C[As+](c2ccccc2)(c2ccccc2)c2ccccc2)cc1`, the T/C (dose: 20.0 mg/kg/injection, schedule: Q01DX001 (ip), vehicle: saline) was 97 % of control.
On to `CC(C)=C(c1ccc(Br)cc1)c1ccc(Br)cc1`, for which the T/C is 93 % of control (dose: 100.0 mg/kg/injection, schedule: Q01DX009 (ip), vehicle: acetone); 105 % of control under setting [3]; 97 % of control under setting [4]; 94 % of control under setting [5].
As to `CC(COC(=O)c1ccc(N)cc1)NC1CCCC1` (stereo unspecified), the T/C is 97 % of control (dose: 75.0 mg/kg/injection, schedule: Q01DX001 (ip), vehicle: saline) and 105 % of control (dose: 150.0 mg/kg/injection, schedule: Q01DX001 (ip), vehicle: saline).
Take `NNc1nnnc2ccccc12`: the T/C (dose: 20.0 mg/kg/injection, schedule: Q01DX001 (ip), vehicle: Klucel (hydroxypropylcellulose) (HPC)) is 108 % of control.
Regarding `O=S(=O)(Nc1cccc2ccccc12)c1ccc(Cl)cc1`, the T/C under setting [6] was 102 % of control, the T/C under setting [7] is 87 % of control and the T/C under setting [8] is 95 % of control.
For the compound `CC(=O)O[C@@]1(C)[C@@H](C)C(=O)O[C@@H]2CCN3CC=C(COC(=O)[C@]1(C)O)[C@H]23`, the T/C (dose: 6.25 mg/kg/injection, schedule: Q01DX009 (ip), vehicle: other) is 97 % of control; the T/C (dose: 12.5 mg/kg/injection, schedule: Q01DX009 (ip), vehicle: other) is 94 % of control; the T/C (dose: 25.0 mg/kg/injection, schedule: Q01DX009 (ip), vehicle: other) is 120 % of control; the T/C (dose: 25.0 mg/kg/injection, schedule: Q01DX009 (ip), vehicle: saline) was 114 % of control; the T/C (dose: 50.0 mg/kg/injection, schedule: Q01DX009 (ip), vehicle: carboxymethylcellulose (CMC)) is 124 % of control; the T/C (dose: 100.0 mg/kg/injection, schedule: Q01DX009 (ip), vehicle: carboxymethylcellulose (CMC)) is 118 % of control.
For the compound `COc1cc(C(=O)O)cc(OC)c1OC`, the T/C by setting is: (dose: 100.0 mg/kg/injection, schedule: Q04DX002 (ip), vehicle: other) 103 % of control; (dose: 200.0 mg/kg/injection, schedule: Q04DX002 (ip), vehicle: other) 98 % of control; (dose: 400.0 mg/kg/injection, schedule: Q04DX002 (ip), vehicle: other) 98 % of control.
For the compound `CCCCCCC(=O)Nc1cccc(OC(=O)NC)c1`, the T/C is 98 % of control under setting [3], 96 % of control under setting [4] and 88 % of control under setting [5].
Regarding `O=C(Nc1ccc(Cl)cc1Cl)Nc1ccc(Cl)cc1Cl`, the T/C is, setting by setting: under setting [1], 91 % of control; under setting [2], 94 % of control.
On to `Cc1cccc(Cl)c1NC(=O)Oc1ccccc1C(N)=O`, for which the T/C under setting [6] was 92 % of control; the T/C under setting [1] was 95 % of control; the T/C under setting [7] is 100 % of control; the T/C under setting [2] is 100 % of control; the T/C under setting [8] is 105 % of control; the T/C (dose: 400.0 mg/kg/injection, schedule: Q04DX002 (ip), vehicle: Klucel (hydroxypropylcellulose) (HPC)) was 100 % of control.
With `Clc1ccc(OCC2=NCCc3ccccc32)cc1`, the T/C (dose: 300.0 mg/kg/injection, schedule: Q01DX001 (ip), vehicle: saline) was 98 % of control and the T/C (dose: 400.0 mg/kg/injection, schedule: Q01DX001 (ip), vehicle: saline) was 104 % of control.
In the case of `O=C(N/N=C/c1ccc(O)cc1)C(c1ccccc1)N1CCCCC1` (stereo unspecified), the T/C (dose: 100.0 mg/kg/injection, schedule: Q01DX001 (ip), vehicle: other) was 102 % of control; the T/C (dose: 200.0 mg/kg/injection, schedule: Q01DX001 (ip), vehicle: other) is 93 % of control; the T/C (dose: 400.0 mg/kg/injection, schedule: Q01DX001 (ip), vehicle: other) is 96 % of control.
In the case of `O=C(C(=O)N1CC2OC2C1)N1CC2OC2C1` (stereo unspecified), the T/C reads like this: (dose: 29.0 mg/kg/injection, schedule: Q04DX002 (ip), vehicle: saline with Tween-80) 95 % of control; (dose: 39.0 mg/kg/injection, schedule: Q01DX001 (ip), vehicle: saline with Tween-80) 98 % of control; (dose: 44.0 mg/kg/injection, schedule: Q04DX002 (ip), vehicle: saline with Tween-80) 100 % of control; (dose: 59.0 mg/kg/injection, schedule: Q01DX001 (ip), vehicle: saline with Tween-80) 102 % of control; (dose: 67.0 mg/kg/injection, schedule: Q04DX002 (ip), vehicle: saline with Tween-80) 100 % of control; (dose: 88.0 mg/kg/injection, schedule: Q01DX001 (ip), vehicle: saline with Tween-80) 97 % of control. In addition, the T/C runs as follows: (dose: 133.0 mg/kg/injection, schedule: Q01DX001 (ip), vehicle: saline with Tween-80) 97 % of control; (dose: 150.0 mg/kg/injection, schedule: Q04DX002 (ip), vehicle: saline with Tween-80) 102 % of control; (dose: 200.0 mg/kg/injection, schedule: Q01DX001 (ip), vehicle: saline with Tween-80) 97 % of control; (dose: 200.0 mg/kg/injection, schedule: Q04DX002 (ip), vehicle: saline with Tween-80) 239 % of control; (dose: 225.0 mg/kg/injection, schedule: Q04DX002 (ip), vehicle: saline with Tween-80) 105 % of control; (dose: 300.0 mg/kg/injection, schedule: Q01DX001 (ip), vehicle: saline with Tween-80) 100 % of control.
Regarding `CNCC(C)CNC`, the T/C runs as follows: (dose: 25.0 mg/kg/injection, schedule: Q04DX003 (ip), vehicle: saline) 94 % of control; (dose: 50.0 mg/kg/injection, schedule: Q01DX009 (ip), vehicle: saline) 103 % of control; (dose: 50.0 mg/kg/injection, schedule: Q04DX003 (ip), vehicle: saline) 93 % of control; (dose: 100.0 mg/kg/injection, schedule: Q01DX009 (ip), vehicle: saline) 103 % of control; under setting [9], 95 % of control and 97 % of control.
As to `COc1cc2c(cc1OC)C(C(C)C)NCC2O` (stereo unspecified), the T/C by setting is: (dose: 100.0 mg/kg/injection, schedule: Q01DX001 (ip), vehicle: saline) 98 % of control; (dose: 200.0 mg/kg/injection, schedule: Q01DX001 (ip), vehicle: saline) 96 % of control.
Turning to `O=C(Nc1ccc(F)cc1)Nc1cccc(C(F)(F)F)c1`, the T/C was 103 % of control (dose: 50.0 mg/kg/injection, schedule: Q01DX009 (ip), vehicle: Klucel (hydroxypropylcellulose) (HPC)); 107 % of control under setting [6]; 92 % of control under setting [7].
On to `CCCC(C)CN` (stereo unspecified), for which the T/C was 100 % of control (dose: 50.0 mg/kg/injection, schedule: Q01DX009 (ip), vehicle: saline with Tween-80); 104 % of control (dose: 100.0 mg/kg/injection, schedule: Q01DX009 (ip), vehicle: saline with Tween-80); 100 % of control under setting [3]; 98 % of control under setting [4].
For the compound `N#CC1C=Cc2ccccc2N1C(=O)Oc1ccccc1` (stereo unspecified), the T/C was 104 % of control under setting [9]; 93 % of control (dose: 200.0 mg/kg/injection, schedule: Q04DX003 (ip), vehicle: saline); 94 % of control (dose: 400.0 mg/kg/injection, schedule: Q04DX003 (ip), vehicle: saline).
As to `CN(Cc1ccccc1)c1ccc2nc(N)nc(N)c2c1`, the T/C is 105 % of control (dose: 25.0 mg/kg/injection, schedule: Q04DX003 (ip), vehicle: saline with Tween-80); 98 % of control (dose: 50.0 mg/kg/injection, schedule: Q04DX003 (ip), vehicle: saline with Tween-80); 108 % of control under setting [3].

The values are drawn from PubChem BioAssay AID248 (DTP/NCI, 2004).
